Experimental findings from patent publication US6277871A, “Inhibitors of protein isoprenyl transferases” (Abbott Laboratories, priority 1999, dated 2001) are described below.

The target of one assay is T1, Rat brain protein farnesyltransferase (Rattus norvegicus, UniProt Q02293+Q04631).
T1 construct: Rat brain protein farnesyltransferase activity is measured; from tissue; host or cells: rat brain
T1 sequence (Q02293 whole entry, one chain of several): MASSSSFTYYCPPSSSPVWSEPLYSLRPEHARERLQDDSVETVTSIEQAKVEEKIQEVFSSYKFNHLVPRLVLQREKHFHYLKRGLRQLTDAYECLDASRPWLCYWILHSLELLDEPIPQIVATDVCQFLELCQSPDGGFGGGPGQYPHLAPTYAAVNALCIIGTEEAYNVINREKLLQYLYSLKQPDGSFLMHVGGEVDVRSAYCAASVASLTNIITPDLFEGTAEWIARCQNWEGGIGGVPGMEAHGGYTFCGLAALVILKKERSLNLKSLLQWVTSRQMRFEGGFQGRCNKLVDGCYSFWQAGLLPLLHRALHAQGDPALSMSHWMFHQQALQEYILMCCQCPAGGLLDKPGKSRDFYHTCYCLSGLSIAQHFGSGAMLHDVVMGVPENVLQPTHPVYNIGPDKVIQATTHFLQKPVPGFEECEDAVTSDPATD
As to the kind of experiment: in vitro inhibition of protein farnesyltransferase (Amersham scintillation proximity assay, biotin-K Ras B fragment substrate). The class given is biochemical. The settings on record: 1 × 10^-7 M; protein farnesyltransferase; compared to uninhibited control; read-out: % inhibition at 1 × 10^-7 M. Here is the method: In addition, in vitro inhibition of protein farnesyltransferase may be measured by the following procedure. […] The enzyme is purified according to Reiss, Y., et al., Cell, 62: 81-88 (1990), hereby incorporated by reference, utilizing steps one through three. […]
The % inhibition of protein farnesyltransferase was determined for representative compounds of the invention.
Turning to `CSCC[C@H](NC(=O)C1=C(c2ccccc2C)CN(C(=O)OCCCC2CCCCC2)CC1)C(=O)O` [Example 1, N-4-[1-(3-cyclohexylpropyloxycarbonyl)-3-(2-methylphenyl)-1,2,5,6-tetrahydroisonicotinyl]methionine], the inhibition at 0.1 µM came out at 100%.
For the molecule `CSCC[C@H](NC(=O)C1=C(c2ccccc2C)CN(C(=O)C=Cc2cncs2)CC1)C(=O)O` [Example 2, N-4-[1-(3-[5-thiazolyl]acryloyl)-3-(2-methylphenyl)-1,2,5,6-tetrahydroisonicotinyl]methionine], the inhibition at 0.1 µM amounted to 43%.
Same read-out and setting: then `CSCC[C@H](NC(=O)C1=C(c2ccccc2C)CN(C(=O)N(Cc2ccccc2)Cc2cncs2)CC1)C(=O)O` [Example 3, N-4-[1-(N'-benzyl-5-thiazolmethylaminocarbonyl)-3-(2-methylphenyl)-1,2,5,6-tetrahydroisonicotinyl]methionine], with 100%.
Take `CSCC[C@H](NC(=O)C1=C(c2ccccc2C)CN(CCCc2ccccc2)CC1)C(=O)O` [Example 4, N-[N'-(3-phenylpropyl)-3-(2-methylphenyl)-1,2,5,6-tetrahydroisonicotinyl]methionine]: the inhibition at 0.1 µM turned out to be 55%.

The assay is the same for the next values; noted with them: read-out: % inhibition at 1 × 10^-7 M.
Regarding `CSCC[C@H](NC(=O)C1=C(c2ccccc2C)CN(C(=O)Cc2cccnc2)CC1)C(=O)O` [Example 5, N-[N'-(3-pyridylacetyl)-3-(2-methylphenyl)-1,2,5,6-tetrahydroisonicotinyl]methionine], the inhibition at 0.1 µM was 94%.
Same read-out and setting: then `CSCC[C@H](NC(=O)C1=C(c2ccccc2C)CN(S(=O)(=O)N(Cc2ccccc2)Cc2cncs2)CC1)C(=O)O` [Example 6, N-4-[1-(N'-benzyl-5-thiazolmethylaminosulfamoyl)-3-(2-methylphenyl)-1,2,5,6-tetrahydroisonicotinyl]methionine], with 90%.
